The results in this text go back to patent US20210253598A1, “ARYL ANNULATED MACROCYCLIC INDOLE DERIVATIVES” (priority 2017, published 2021).

The target of data set [1] is BCL-XL (Homo sapiens, UniProt Q07817). The data set is described as follows: Protein-protein interaction assay BCL-XL/Bad BH3 peptide, TR-FRET (BCL-XL assay, Assay 2). Format: binding. Conditions: His-BCL-XL / Bad BH3 peptide, median. In general terms: Time-resolved FRET reads energy transfer from a long-lived donor to a nearby acceptor.
Description: Protein-Protein Interaction Assay: BCL-XL/Bad BH3 Peptide (BCL-XL Assay)
The dose-dependent inhibition by the compounds described in this invention of the interaction between BCL-XL and the BH3 domain of Bad (both human) was determined using a steady state binding competition assay with time-resolved fluorescence energy transfer (TR-FRET) readout. For that purpose BCL-XL (amino acids 1-212, C-terminal fused to a hexahistidine (6×His) tag (SEQ ID 3) and a synthetic Bad BH3-derived peptide of sequence Biotin-PEG2-PEG2-[sequence]-Nle-[sequence]-amide (SEQ ID 4) served as protein receptor and tracer ligand respectively. The recombinant BCL-XL protein (expressed in E. coli) was purchased from BPS Bioscience (San Diego, Calif., USA). The Bad BH3-derived peptide can be obtained from e.g. Biosyntan (Berlin, Germany).
For that, 100-fold concentrated DMSO solutions were prepared by serial dilutions (1:3.4) of a 2 mM stock solution in a clear, 384-well microtiter plate (Greiner Bio-One, Frickenhausen, Germany). From there, 50 nl were transferred in a dark test plate (Greiner Bio-One, Frickenhausen, Germany). The assay was initiated by addition of 2 μl of a 2,5-fold concentrated His-BCL-XL solution (usually for a 1 nM end concentration in 5 μl reaction volume) in aqueous assay buffer [50 mM Tris/HCl pH 7, 100 mM sodium chloride (NaCl), 50 mM potassium fluoride (KF), 0.005% Tween-20, 2 mM DTT, 0.1% bovine gamma globulin (BGG)] to the compounds in the assay plate. This was followed by a 10-minute incubation step at 22° C. for pre-equilibration of the putative complex between His-BCL-XL and the compounds.
The mixture was incubated in the dark for one hour at 22° C. and then overnight at 4° C. The formation of BCL-XL/Bad complexes was determined by measuring the resonance energy transfer of the anti-His- Eu-cryptate antibody to the streptavidin-XL665 present in the reaction. For that purpose, the fluorescence emission at 620 nm and 665 nm after excitation at 330-350 nm was measured in a TR-FRET measuring instrument, for instance a Rubystar or a Pherastar (both from BMG Lab Technologies, Offenburg, Germany) or a Viewlux (Perkin-Elmer). The ratio of the emission at 665 nm and at 622 nm was used as indicator of the amount of BCL-XL/Bad complexes present.
The resulting data (ratio) were normalized, taking 0% inhibition as the mean value of control measurements (usually 32 data points) where all reagents were included. In this case 50 nl DMSO were used instead of compounds. […] IC50 values were determined by regression analysis based on a 4 parameter equation (minimum, maximum, IC50, Hill; Y=Max+(Min−Max)/(1+(X/IC50)^Hill) using the Screener Software (Genedata).
For data set [2], the target named is BCL-2 (Homo sapiens, UniProt P10415). The data set is described as follows: Protein-protein interaction assay BCL-2/Bad BH3 peptide, TR-FRET (BCL-2 assay, Assay 3). The data set is classed as binding. The following applies: His-BCL-2 / Bad BH3 peptide, median.
The subject of data set [3] is SUDHL5. Briefly: Induction of caspase-3/7 activity in SUDHL5 cells (Assay 4). The data set is classed as cell-based. In outline: (§1)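 Luminescent Caspase-Glo 3/7 read-out in SUDHL5 and SUDHL10 cells after 3 h compound exposure at 37 °C, followed by 1 h reagent incubation.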
Data set [4] relates to SUDHL10. Briefly: Induction of caspase-3/7 activity in SUDHL10 cells (Assay 4). Format: cell-based. The method, boiled down: as §1
For data set [5], the system named is SUDHL5. Briefly: Induction of cytotoxicity in SUDHL5 cells, CellTiter-Glo (Assay 6). Format: cell-based. In outline:
(§2)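 Run alongside apoptosis assays, this cytotoxicity measure used a 5-hour compound incubation at 37° C in humidified conditions, following overnight attachment. Cell viability was quantified by CellTiter-Glo luminescence.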
(In ATP-based viability assays light output follows the ATP content of the culture.)

In data set [6] the test system is SUDHL10. The data set is described as follows: Induction of cytotoxicity in SUDHL10 cells, CellTiter-Glo (Assay 6). The data set is classed as cell-based. The method, boiled down:
as §2

Data set [7] relates to SUDHL5. Briefly: Anti-proliferative effect in SUDHL5 cells, CellTiter-Glo (Assay 7). The data set is classed as cell-based. The method, boiled down:
(§3)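 Overnight seeding at 37 °C, then 72 h treatment with compound; day 0 plate read at start. Luminescent ATP-based viability readout (CellTiter-Glo). IC50 normalised between day 0 and DMSO values.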

The subject of data set [8] is A2780. The data set is described as follows: Anti-proliferative effect in A2780 cells, CellTiter-Glo (Assay 7). Format: cell-based. The following applies: several values per example. In outline: as §3
The target of data set [9] is MCL-1 (Homo sapiens, UniProt Q07820, K194A/K197A/R201A). Briefly: Protein-protein interaction assay MCL-1/Noxa BH3 peptide, TR-FRET (MCL-1 assay, Assay 1). The data set is classed as binding. Conditions: MCL-1 Assay [M] (median), MBP-MCL-1 / Noxa BH3 peptide. The method, boiled down:
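TR-FRET competition between compounds and a biotin-PEG Noxa BH3 tracer for 1 nM MBP-MCL-1 (residues 173-321). Incubation was 1 h at 22 °C in the dark, then overnight at 4 °C, in 50 mM Tris pH 7 buffer with KF and DTT, after a 10-min compound pre-equilibration. Normalized ratios were fitted with a 4-parameter Hill equation to give IC50.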

Data set [10] concerns MV-4-11. Briefly: Anti-proliferative effect in MV-4-11 cells, CellTiter-Glo (Assay 7). Format: cell-based. The following applies: several values per example. In outline:
as §3

In data set [11] the test system is AMO-1. Briefly: Anti-proliferative effect in AMO-1 cells, CellTiter-Glo (Assay 7). Format: cell-based. As to the method: Assessment of the Anti-Proliferative Effect of Compounds in Different Cell Lines
The impact of compounds on the proliferation of different cell lines was assessed using the CellTiter-Glo® Luminescent Cell Viability reagent from Promega (G7573).
In parallel, cells were plated in a reference (day 0) plate for time zero determination. Cells were incubated in a humidified incubator at 37° C. overnight.
Rim wells were excluded. The cells were incubated for 72 hours in a humidified incubator at 37° C. The day 0 plate was measured by adding 30 μL/well of CTG solution (CellTiter-Glo® Luminescent Cell Viability reagent, Promega G7573) to time zero wells in the reference plate followed by a 10 minutes incubation and luminescence reading at 0.1 ms. using the PHERAstar FS microplate reader (BMG Labtech).
After 72 hours incubation, the treated plates were measured in the same way as the day 0 plate mentioned above. The Bella DRC Master Sheet was used to calculate IC50s, with CI=day 0 values and C0=DMSO control values.

Where [12] appears, read: Homo sapiens, SU-DHL-5, 3 h, SUDHL5, 3 hours treatment, Caspase-Glo 3/7, median, read-out: Caspase SUDHL5 [M] (median).
Setting [13] is: Homo sapiens, SU-DHL10, 3 h, SUDHL10, 3 hours treatment, Caspase-Glo 3/7, median, read-out: Caspase SUDHL10 [M] (median).
The mark [14] stands for this setting: Homo sapiens, SU-DHL-5, 5 h, SUDHL5, 5 hours incubation, median, read-out: Cytotox SUDHL5 [M] (median).
Setting [15] is: Homo sapiens, SU-DHL10, 5 h, SUDHL10, 5 hours incubation, median, read-out: Cytotox SUDHL10 [M] (median).
[16] abbreviates: Homo sapiens, SU-DHL-5, 72 h, SUDHL5, 72 hours incubation, CellTiter-Glo, median, read-out: Antiproli SUDHL5 [M] (median).
[17] abbreviates: A2780, 72 hours incubation, CellTiter-Glo, read-out: Antiproli A2780.
The mark [18] stands for this setting: Homo sapiens, A2780, 72 h, A2780, 72 hours incubation, CellTiter-Glo, read-out: Antiproli A2780.
Setting [19] is: Homo sapiens, MV4-11, 72 h, MV-4-11, 72 hours incubation, CellTiter-Glo, read-out: Antiproli MV-4-11.
[20] abbreviates: SUDHL5, 3 hours treatment, Caspase-Glo 3/7, median, read-out: Caspase SUDHL5 [M] (median).
[21] abbreviates: SUDHL10, 3 hours treatment, Caspase-Glo 3/7, median, read-out: Caspase SUDHL10 [M] (median).
The mark [22] stands for this setting: read-out: Caspase SUDHL5 [M] (median), SUDHL5, 3 hours treatment, Caspase-Glo 3/7.
The mark [23] stands for this setting: read-out: Caspase SUDHL10 [M] (median), SUDHL10, 3 hours treatment, Caspase-Glo 3/7.
Where [24] appears, read: SUDHL5, 5 hours incubation, median, read-out: Cytotox SUDHL5 [M] (median).
Setting [25] is: SUDHL10, 5 hours incubation, median, read-out: Cytotox SUDHL10 [M] (median).
Where [26] appears, read: read-out: Antiproli AMO-1; AMO-1, 72 hours incubation, CellTiter-Glo; several values per example.

Values joined by “and” are separate entries in the source; they are usually repeats but may differ in a detail not shown here. Identical values can stand only once. Counter-ions that a name gives are not always drawn. Like-named read-outs stand apart in the source and are kept apart here.

Sequence of BCL-XL (Q07817 1-212): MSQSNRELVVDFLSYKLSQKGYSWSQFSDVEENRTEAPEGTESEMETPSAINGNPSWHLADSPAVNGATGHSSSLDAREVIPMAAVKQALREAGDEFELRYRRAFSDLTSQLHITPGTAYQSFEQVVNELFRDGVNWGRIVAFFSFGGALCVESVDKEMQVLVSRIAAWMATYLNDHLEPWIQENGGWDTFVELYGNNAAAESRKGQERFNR
Sequence of BCL-2 (P10415 1-211): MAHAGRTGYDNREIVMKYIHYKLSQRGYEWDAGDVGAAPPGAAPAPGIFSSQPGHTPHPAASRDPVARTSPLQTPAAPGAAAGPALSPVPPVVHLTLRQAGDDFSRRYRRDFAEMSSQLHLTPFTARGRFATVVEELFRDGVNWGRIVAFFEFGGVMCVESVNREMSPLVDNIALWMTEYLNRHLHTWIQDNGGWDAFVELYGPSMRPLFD
Sequence of MCL-1 (Q07820 173-321 K194A/K197A/R201A, looked up): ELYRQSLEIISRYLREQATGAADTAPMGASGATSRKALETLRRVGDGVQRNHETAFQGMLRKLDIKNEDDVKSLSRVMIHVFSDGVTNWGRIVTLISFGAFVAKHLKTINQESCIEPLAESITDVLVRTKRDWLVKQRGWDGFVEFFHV

As to `Cc1c2c(nn1C)COCc1nc3ccccc3nc1Cn1c(C(=O)O)c(CCCOc3cccc4ccccc34)c3cccc-2c31` (racemic) [Example 10, (rac)-4,5-Dimethyl-19-[3-(naphthalen-1-yloxy)propyl]-5,7,9,16-tetrahydroindolo[1′,7′:6,7,8]-pyrazolo[4′,3′:9,10][1,6]oxazacycloundecino[3,4-b]quinoxaline-18-carboxylic Acid], the IC50 is > 20 µM in data set [1]; > 20 µM in [2]; 5.6e-06 M in [5] (setting [14]); 1.4e-05 M in [6] (setting [15]); 5.1e-06 M in data set [7] (setting [16]); 2.06e-05 M in data set [8] (setting [17]). Besides, the IC50 in [8] (setting [18]) was > 3.3e-05 M. The values for the EC50 in data set [3] (setting [12]) and in data set [4] (setting [13]) were 4.3e-06 M and 1.8e-05 M, respectively.

With `CCc1c2c(nn1C)COCc1ccccc1Cn1c(C(=O)O)c(CCCOc3cc(C)c(Cl)c(C)c3)c3ccc(F)c-2c31` (racemic) [Example 79, (rac)-1-(3-(4-Chloro-3,5-dimethylphenoxy)propyl)-14-15-fluoro-13-methyl-4,9,11,13-tetrahydrobenzo[3,4]pyrazolo[4′,3′:9,10][1]oxa[6]azacycloundecino[8,7,6-hi]indole-2-carboxylic Acid], the IC50 in [9] amounted to 2.6e-09 M; in [1] it was 19.6 µM; in data set [2], 15.6 µM; in data set [5] (setting [14]), 2.1e-06 M; in data set [6] (setting [15]), 1e-05 M; in [7] (setting [16]), 9.2e-06 M. For the same compound, the IC50 in data set [10] (setting [19]) was 2.33e-06 M; in data set [8] (setting [18]), 1.7e-05 M. Moreover, the EC50 in data set [3] (setting [12]) came out at 2.9e-06 M; in [4] (setting [13]), 1.3e-05 M.

As to `Cc1c2c(nn1C)CNCc1ccccc1Cn1c(C(=O)O)c(CCCOc3cccc4ccccc34)c3cccc-2c31` (single isomer, unassigned; enantiomer 1) [Example 12, 4,5-Dimethyl-17-[3-(naphthalen-1-yloxy)propyl]-7,8,9,14-tetrahydro-5H-indolo[1,7-bc]pyrazolo-[4,3-e][2,8]benzodiazacycloundecine-16-carboxylic acid-Trifluoroacetic Acid Salt (Enantiomer 1)], the IC50 in [9] is 2.9e-09 M; in data set [1], > 20 µM; in data set [2], > 20 µM; in [5] (read-out: Cytotox SUDHL5 [M] (median), SUDHL5, 5 hours incubation), 1.9e-06 M; in data set [6] (read-out: Cytotox SUDHL10 [M] (median), SUDHL10, 5 hours incubation) it was 5e-06 M. Further, the EC50 in [3] (setting [20]) was determined as 2.4e-06 M; in data set [4] (setting [21]), 4.9e-06 M.

`Cc1c2c(nn1C)COCc1cccnc1Cn1c(C(=O)O)c(CCCOc3cccc4ccccc34)c3ccc(Cl)c-2c31` (single isomer, unassigned; enantiomer 2) [Example 41, 3-Chloro-4,5-dimethyl-17-[3-(naphthalen-1-yloxy)propyl]-5,7,9,14-tetrahydropyrazolo-[4′,3′:9,10]pyrido[3′,2′:3,4][1,6]oxazacycloundecino[8,7,6-hi]indole-16-carboxylic acid-N-ethylethanamine Salt (Enantiomer 2)]: the IC50 in [9] was 5.8e-09 M; in data set [5] (setting [24]), 6e-06 M; in data set [6] (setting [25]), 1.4e-05 M; in data set [7] (read-out: Antiproli SUDHL5 [M] (median), SUDHL5, 72 hours incubation, CellTiter-Glo), 5.2e-06 M; in data set [10] (read-out: Antiproli MV-4-11, MV-4-11, 72 hours incubation, CellTiter-Glo) it was 1.59e-05 M and 8.2e-06 M; in data set [11] (setting [26]), 8.4 µM and 11.2 µM. The IC50 in data set [8] (read-out: Antiproli A2780, A2780, 72 hours incubation, CellTiter-Glo) is > 3.3e-05 M. Further, the EC50 in data set [3] (setting [22]) was 6.1e-06 M; in data set [4] (setting [23]), 1.6e-05 M.

Consider `Cc1c2c(nn1C)CN(S(=O)(=O)CCN1CCOCC1)Cc1ccccc1Cn1c(C(=O)O)c(CCCOc3cccc4ccccc34)c3cccc-2c31` (single isomer, unassigned; enantiomer 1) [Example 31, (+)-4,5-Dimethyl-8-[2-(morpholin-4-yl)ethanesulfonyl]-17-{3-[(naphthalen-1-yl)oxy]propyl}-7,8,9,14-tetrahydro-5H-indolo[1,7-bc]pyrazolo[4,3-e][2,8]benzodiazacycloundecine-16-carboxylic acid-N-ethylethanamine Salt (Enantiomer 1)], for which the IC50 in data set [9] was 1.3e-08 M; in data set [5] (setting [24]), 5.3e-06 M; in [6] (setting [25]) it was > 7.8e-05 M; in data set [7] (Homo sapiens, SU-DHL-5, 72 h, read-out: Antiproli SUDHL5 [M] (median), SUDHL5, 72 hours incubation, CellTiter-Glo) it was 4.8e-06 M; in data set [10] (Homo sapiens, MV4-11, 72 h, read-out: Antiproli MV-4-11 [M], MV-4-11, 72 hours incubation, CellTiter-Glo), 5.49e-06 M; in [11] (setting [26]), 5.93 µM. Also, the IC50 in [8] (Homo sapiens, A2780, 72 h, read-out: Antiproli A2780 [M], A2780, 72 hours incubation, CellTiter-Glo) was 6.72e-06 M. For the same compound, the results for the EC50 in data set [3] (setting [22]) and in [4] (setting [23]) were 5.2e-06 M and 9.7e-06 M, respectively.

For `CCc1nn(CCN2CCOCC2)c2c1-c1c(Cl)ccc3c(CCCOc4cccc5cc(F)ccc45)c(C(=O)O)n(c13)Cc1ccccc1COC2` (single isomer, unassigned; enantiomer 2) [Example 53, (+)-3-Chloro-4-ethyl-17-{3-[(6-fluoronaphthalen-1-yl)oxy]propyl}-6-[2-(morpholin-4-yl)ethyl]-6,7,9,14-tetrahydroindolo[7,1-fg]pyrazolo[3,4-d][2,8]benzoxazacycloundecine-16-carboxylic Acid (Enantiomer 2)], the IC50 in data set [9] was 8.3e-09 M; in data set [5] (setting [24]), 2.3e-06 M; in data set [6] (setting [25]), 6.5e-06 M; in data set [7] (SUDHL5, 72 hours incubation, CellTiter-Glo, median, read-out: Antiproli SUDHL5 [M] (median)) it was 2.8e-06 M; in data set [10] (MV-4-11, 72 hours incubation, CellTiter-Glo, read-out: Antiproli MV-4-11) it was 4.91e-06 M and 8.2e-06 M; in data set [11] (AMO-1, 72 hours incubation, CellTiter-Glo; several values per example; read-out: Antiproli AMO-1), 9.44 µM. Also, the IC50 in data set [8] (setting [17]) stood at 8.15e-06 M. Besides, the results for the EC50 in [3] (setting [20]) and in data set [4] (setting [21]) were 1.8e-06 M and 5.9e-06 M, respectively.

For `CCc1c2c(nn1C)COCc1ccccc1Cn1c(C(=O)O)c(CCCOc3cccc4cc(F)ccc34)c3ccc(Cl)c-2c31` (racemic) [Example 54, (rac)-3-Chloro-4-ethyl-17-{3-[(6-fluoronaphthalen-1-yl)oxy]propyl}-5-methyl-5,7,9,14-tetrahydroindolo[7,1-fg]pyrazolo[3,4-d][2,8]benzoxazacycloundecine-16-carboxylic Acid], the IC50 in data set [9] was determined as 8.3e-10 M; in data set [5] (setting [14]), 9.3e-07 M; in data set [6] (setting [15]), 2.6e-06 M; in [7] (setting [16]), 1.4e-06 M; in [10] (setting [19]), 3.83e-06 M; in data set [11] (Homo sapiens, AMO1, 72 h, AMO-1, 72 hours incubation, CellTiter-Glo; several values per example; read-out: Antiproli AMO-1) it was 1.77 µM. For the same compound, the IC50 in data set [8] (setting [18]) is 6.59e-06 M. Also, the figures for the EC50 in data set [3] (setting [12]) and in data set [4] (setting [13]) were 8.4e-07 M and 1.8e-06 M, respectively.
